Each structure is given as a SMILES string.

One may read the inhibition as how much of the control response was suppressed. The Ki is the dissociation constant of the complex between target and ligand, obtained from inhibition or displacement.

Assay [1] concerns the target T1, Aurora kinase C (Homo sapiens) (UniProt Q9UQB9).
T1 sequence (whole entry): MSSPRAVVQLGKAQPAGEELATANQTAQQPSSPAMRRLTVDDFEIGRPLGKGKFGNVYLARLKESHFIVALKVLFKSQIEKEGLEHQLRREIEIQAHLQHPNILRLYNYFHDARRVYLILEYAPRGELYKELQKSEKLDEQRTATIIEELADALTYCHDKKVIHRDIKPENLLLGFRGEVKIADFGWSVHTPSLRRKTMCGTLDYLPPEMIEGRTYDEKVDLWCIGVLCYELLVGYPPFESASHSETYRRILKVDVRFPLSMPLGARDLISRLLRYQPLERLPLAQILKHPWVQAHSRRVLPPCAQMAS
The note with it: Compound concentration 1000.0 nM.

In assay [2] the target is Focal adhesion kinase 1 (Homo sapiens) (UniProt Q05397). The settings on record: Compound concentration 1000.0 nM.
Focal adhesion kinase 1 (Homo sapiens), sequence (Q05397 2-1052 limits assumed): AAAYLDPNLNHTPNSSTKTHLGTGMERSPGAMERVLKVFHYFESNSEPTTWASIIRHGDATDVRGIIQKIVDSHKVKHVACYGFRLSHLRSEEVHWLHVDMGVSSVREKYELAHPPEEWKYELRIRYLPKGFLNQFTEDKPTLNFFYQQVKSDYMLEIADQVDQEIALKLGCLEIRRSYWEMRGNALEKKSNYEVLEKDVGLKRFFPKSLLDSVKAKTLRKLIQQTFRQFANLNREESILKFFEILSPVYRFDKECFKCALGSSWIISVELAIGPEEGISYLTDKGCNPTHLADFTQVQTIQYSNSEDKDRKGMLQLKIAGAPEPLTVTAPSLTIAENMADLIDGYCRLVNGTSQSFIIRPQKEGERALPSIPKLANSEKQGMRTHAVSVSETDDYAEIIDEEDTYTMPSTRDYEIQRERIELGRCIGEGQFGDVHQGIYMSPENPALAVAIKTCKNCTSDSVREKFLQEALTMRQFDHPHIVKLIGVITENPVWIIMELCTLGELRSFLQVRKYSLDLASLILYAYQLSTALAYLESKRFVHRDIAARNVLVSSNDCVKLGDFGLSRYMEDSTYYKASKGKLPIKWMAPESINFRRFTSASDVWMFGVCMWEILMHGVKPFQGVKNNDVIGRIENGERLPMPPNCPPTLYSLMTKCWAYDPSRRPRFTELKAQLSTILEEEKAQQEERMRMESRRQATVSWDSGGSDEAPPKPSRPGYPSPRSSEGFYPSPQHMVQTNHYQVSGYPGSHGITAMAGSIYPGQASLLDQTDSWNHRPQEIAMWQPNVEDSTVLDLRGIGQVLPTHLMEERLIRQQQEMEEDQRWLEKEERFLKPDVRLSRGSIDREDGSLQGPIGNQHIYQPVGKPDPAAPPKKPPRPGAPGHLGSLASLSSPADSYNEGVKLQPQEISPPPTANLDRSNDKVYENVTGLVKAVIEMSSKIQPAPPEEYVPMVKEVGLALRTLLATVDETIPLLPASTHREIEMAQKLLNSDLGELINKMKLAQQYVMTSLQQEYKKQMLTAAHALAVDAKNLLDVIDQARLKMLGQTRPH
The target of assay [3] is T2, Ephrin type-B receptor 2 (Homo sapiens) (UniProt P29323).
T2 sequence (whole entry): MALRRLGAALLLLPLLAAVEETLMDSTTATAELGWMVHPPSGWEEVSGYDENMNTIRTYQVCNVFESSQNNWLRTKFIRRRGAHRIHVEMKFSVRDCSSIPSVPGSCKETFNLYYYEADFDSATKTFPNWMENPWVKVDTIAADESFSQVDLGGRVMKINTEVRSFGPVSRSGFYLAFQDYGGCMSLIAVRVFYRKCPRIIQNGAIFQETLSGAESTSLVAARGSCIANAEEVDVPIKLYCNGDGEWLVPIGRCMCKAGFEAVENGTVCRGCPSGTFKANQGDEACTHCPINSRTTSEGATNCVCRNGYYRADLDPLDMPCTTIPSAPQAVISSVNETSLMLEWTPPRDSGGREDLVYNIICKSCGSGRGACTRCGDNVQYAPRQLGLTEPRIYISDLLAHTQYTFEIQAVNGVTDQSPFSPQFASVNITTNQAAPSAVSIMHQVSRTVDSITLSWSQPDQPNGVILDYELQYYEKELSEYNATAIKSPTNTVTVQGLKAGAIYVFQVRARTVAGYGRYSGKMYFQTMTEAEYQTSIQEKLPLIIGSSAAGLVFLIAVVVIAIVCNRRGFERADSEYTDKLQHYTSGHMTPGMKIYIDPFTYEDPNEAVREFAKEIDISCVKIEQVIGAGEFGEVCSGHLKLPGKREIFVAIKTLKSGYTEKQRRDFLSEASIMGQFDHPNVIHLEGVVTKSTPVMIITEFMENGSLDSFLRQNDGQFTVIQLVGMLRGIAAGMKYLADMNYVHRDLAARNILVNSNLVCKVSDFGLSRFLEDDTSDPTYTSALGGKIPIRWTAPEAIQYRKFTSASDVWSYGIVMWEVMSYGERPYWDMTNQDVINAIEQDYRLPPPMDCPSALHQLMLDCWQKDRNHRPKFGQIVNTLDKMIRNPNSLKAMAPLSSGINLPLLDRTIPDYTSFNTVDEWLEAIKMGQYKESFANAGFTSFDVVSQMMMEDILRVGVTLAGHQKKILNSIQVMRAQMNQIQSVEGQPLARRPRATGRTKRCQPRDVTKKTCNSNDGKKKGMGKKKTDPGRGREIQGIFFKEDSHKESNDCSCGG
The note with it: Compound concentration 1000.0 nM.

For assay [4], the system named is Mast/stem cell growth factor receptor Kit (Homo sapiens), P10721 [D816V]. The note with it: Compound concentration 1000.0 nM.
Mast/stem cell growth factor receptor Kit (Homo sapiens), P10721 [D816V], sequence (P10721 whole entry D816V): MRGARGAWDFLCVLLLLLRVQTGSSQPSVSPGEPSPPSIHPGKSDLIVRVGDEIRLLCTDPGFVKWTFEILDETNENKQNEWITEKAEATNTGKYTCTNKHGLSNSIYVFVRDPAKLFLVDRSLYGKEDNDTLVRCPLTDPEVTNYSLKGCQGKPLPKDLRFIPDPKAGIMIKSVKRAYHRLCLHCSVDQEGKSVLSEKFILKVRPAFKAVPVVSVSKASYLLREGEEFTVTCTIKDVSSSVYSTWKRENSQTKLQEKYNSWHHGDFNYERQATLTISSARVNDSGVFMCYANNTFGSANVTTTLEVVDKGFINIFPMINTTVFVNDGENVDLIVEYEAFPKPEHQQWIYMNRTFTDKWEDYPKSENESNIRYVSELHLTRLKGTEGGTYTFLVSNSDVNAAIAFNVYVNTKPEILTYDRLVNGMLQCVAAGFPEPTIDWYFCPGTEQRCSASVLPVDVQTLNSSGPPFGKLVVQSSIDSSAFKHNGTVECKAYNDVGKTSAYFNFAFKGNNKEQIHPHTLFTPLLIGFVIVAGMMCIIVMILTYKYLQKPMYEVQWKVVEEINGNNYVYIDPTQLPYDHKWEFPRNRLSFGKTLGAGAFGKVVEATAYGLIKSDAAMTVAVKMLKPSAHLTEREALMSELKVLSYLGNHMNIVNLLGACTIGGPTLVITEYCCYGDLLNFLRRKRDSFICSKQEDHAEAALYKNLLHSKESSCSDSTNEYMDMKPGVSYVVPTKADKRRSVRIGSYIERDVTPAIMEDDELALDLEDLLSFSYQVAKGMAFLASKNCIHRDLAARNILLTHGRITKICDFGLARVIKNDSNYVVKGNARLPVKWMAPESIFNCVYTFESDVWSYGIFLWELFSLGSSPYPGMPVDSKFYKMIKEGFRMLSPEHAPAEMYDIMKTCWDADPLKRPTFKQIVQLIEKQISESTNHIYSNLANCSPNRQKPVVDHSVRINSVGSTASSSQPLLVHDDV
Assay [5] addresses T3, Dual specificity mitogen-activated protein kinase kinase 6 (Homo sapiens) (UniProt P52564).
T3 sequence (whole entry): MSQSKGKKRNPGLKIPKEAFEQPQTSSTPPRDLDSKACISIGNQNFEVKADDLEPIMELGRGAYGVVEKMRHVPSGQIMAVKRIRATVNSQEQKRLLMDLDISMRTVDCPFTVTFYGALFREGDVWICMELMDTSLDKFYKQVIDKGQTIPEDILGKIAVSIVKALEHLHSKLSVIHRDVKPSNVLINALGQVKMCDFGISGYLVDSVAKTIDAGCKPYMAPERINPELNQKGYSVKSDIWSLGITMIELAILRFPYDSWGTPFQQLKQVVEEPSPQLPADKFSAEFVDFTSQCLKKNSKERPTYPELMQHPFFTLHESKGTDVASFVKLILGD
The note with it: Compound concentration 1000.0 nM.

For assay [6], the target named is 5-hydroxytryptamine receptor 1B (Homo sapiens) (UniProt P28222). The note with it: Compound concentration 10.0 uM.
5-hydroxytryptamine receptor 1B (Homo sapiens), sequence (P28222 whole entry): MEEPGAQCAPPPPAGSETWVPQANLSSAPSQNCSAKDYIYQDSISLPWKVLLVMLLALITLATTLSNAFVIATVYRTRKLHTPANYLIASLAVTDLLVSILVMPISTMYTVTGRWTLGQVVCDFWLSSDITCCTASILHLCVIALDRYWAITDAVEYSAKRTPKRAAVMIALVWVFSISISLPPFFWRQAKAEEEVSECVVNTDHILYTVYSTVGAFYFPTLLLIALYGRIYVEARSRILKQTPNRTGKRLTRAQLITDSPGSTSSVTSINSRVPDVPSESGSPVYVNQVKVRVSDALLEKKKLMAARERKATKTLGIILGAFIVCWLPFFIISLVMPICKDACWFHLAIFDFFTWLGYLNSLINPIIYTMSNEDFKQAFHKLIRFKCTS
The target in assay [7] is Interferon-induced, double-stranded RNA-activated protein kinase (Homo sapiens) (UniProt P19525). The note with it: Compound concentration 1000.0 nM.
Interferon-induced, double-stranded RNA-activated protein kinase (Homo sapiens), sequence (P19525 whole entry): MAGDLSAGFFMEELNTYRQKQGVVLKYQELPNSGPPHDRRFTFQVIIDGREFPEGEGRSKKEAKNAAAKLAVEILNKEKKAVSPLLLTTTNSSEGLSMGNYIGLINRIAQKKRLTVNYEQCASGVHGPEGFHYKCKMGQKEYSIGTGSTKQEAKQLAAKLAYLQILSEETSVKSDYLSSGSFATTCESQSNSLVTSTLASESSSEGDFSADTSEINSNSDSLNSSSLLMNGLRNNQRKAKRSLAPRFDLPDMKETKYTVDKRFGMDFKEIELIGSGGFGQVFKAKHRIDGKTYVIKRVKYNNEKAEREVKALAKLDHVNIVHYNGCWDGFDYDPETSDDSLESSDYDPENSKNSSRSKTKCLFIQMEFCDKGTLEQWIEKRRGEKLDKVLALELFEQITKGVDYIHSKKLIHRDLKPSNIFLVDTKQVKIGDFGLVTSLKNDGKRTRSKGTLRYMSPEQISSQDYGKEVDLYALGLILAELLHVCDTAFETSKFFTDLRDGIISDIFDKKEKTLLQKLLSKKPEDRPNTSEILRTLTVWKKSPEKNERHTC
Assay [8] deals with Tyrosine-protein kinase ABL1 (Homo sapiens), P00519 [F317L]. The settings on record: Compound concentration 1000.0 nM.
The target of assay [9] is T4, Protein kinase C epsilon type (Homo sapiens) (UniProt Q02156).
T4 sequence (whole entry): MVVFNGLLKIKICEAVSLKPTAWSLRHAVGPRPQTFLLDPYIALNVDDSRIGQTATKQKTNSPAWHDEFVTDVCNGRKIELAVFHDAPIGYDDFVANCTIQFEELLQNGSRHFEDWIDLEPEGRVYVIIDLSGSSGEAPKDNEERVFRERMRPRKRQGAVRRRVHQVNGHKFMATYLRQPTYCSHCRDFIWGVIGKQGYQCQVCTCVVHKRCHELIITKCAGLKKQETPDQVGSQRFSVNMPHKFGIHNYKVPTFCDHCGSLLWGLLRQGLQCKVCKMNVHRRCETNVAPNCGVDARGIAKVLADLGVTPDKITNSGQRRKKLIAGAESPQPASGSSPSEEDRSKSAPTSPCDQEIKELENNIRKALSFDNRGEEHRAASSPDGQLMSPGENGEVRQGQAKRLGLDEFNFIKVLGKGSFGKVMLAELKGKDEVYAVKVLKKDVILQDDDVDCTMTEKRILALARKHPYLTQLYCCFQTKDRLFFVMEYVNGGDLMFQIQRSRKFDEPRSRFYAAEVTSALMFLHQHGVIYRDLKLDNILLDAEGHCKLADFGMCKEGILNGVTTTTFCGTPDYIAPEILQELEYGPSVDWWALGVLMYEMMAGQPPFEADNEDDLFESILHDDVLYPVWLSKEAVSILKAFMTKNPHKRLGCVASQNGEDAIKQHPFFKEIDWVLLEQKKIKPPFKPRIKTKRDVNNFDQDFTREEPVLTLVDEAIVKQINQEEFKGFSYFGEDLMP
The settings on record: Compound concentration 1000.0 nM.

Assay [10] addresses Delta-type opioid receptor (Homo sapiens) (UniProt P41143). The settings on record: Compound concentration 10.0 uM.
Assay [11] has as its target Sigma non-opioid intracellular receptor 1 (Homo sapiens, UniProt Q99720). Kind of assay: GPCRScan assay: inhibition of Sigma 1. More on the design: radioligand conc. used [nm] 4.0 – 5.0, parental cells HEKT.
In assay [12] the target is D(1B) dopamine receptor (Homo sapiens) (UniProt P21918). The note with it: Compound concentration 10.0 uM.
D(1B) dopamine receptor (Homo sapiens), sequence (P21918 whole entry): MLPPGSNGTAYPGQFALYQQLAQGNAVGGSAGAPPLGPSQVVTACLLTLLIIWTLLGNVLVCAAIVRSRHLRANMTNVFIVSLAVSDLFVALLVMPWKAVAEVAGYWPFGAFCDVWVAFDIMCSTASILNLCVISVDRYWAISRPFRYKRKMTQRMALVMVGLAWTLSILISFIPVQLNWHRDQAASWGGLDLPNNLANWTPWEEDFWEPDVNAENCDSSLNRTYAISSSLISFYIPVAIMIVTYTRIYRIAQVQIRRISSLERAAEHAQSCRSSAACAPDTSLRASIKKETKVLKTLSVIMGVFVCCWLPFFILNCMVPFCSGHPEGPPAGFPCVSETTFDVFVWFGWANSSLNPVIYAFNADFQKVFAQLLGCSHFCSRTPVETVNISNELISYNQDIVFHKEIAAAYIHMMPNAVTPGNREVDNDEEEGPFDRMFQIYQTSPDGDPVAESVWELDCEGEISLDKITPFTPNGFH

Sigma non-opioid intracellular receptor 1, sequence (Q99720 whole entry): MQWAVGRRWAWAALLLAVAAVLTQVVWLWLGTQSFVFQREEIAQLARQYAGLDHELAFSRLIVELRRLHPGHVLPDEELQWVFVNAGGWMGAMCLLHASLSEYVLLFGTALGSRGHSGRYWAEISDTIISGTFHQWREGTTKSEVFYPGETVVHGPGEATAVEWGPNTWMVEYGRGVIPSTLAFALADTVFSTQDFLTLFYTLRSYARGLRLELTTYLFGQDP
Delta-type opioid receptor (Homo sapiens), sequence (P41143 whole entry): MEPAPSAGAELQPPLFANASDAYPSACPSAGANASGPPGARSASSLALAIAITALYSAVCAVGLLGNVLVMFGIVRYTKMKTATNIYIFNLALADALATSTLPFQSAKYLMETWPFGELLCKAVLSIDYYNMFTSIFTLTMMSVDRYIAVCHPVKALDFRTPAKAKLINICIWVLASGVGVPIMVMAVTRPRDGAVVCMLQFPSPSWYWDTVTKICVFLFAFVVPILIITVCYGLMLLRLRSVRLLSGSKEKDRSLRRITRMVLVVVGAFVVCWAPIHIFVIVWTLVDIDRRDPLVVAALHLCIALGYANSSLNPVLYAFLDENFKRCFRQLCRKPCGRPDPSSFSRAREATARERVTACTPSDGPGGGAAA

As for `Cc1nc(C2CCN(C(=O)c3ccc(OC(F)(F)F)cc3N)CC2)c2ncc(N3CCN(C)CC3)cc2n1` [BAY-693], the residual activity in assay [1] was 100%; in assay [2], 91%; in assay [3], 100%; in assay [4], 100%; in assay [5], 97%; in assay [7], 95%. In addition, the residual activity in [8] was 96%; in assay [9], 100%. Moreover, the inhibition is 14.6% in assay [6], 4.34% in [10] and 12.4% in assay [12]. Further, the Ki in assay [11] stood at 2370 nM.
For `CN1CCN(c2cnc3c(C4CCN(C(=O)c5ccc(OC(F)(F)F)cc5N)CC4)ncnc3c2)CC1` [BAY-885], the residual activity in assay [1] is 67%; in assay [2] it was 100%; in assay [3] it was 78%; in [4], 100%; in assay [5], 88%; in assay [7], 85%. The residual activity in assay [8] and in assay [9] was 100% throughout. For the same compound, the inhibition in assay [6] is 14.9%; in assay [10] it was 0.94%; in assay [12], 4.63%. Also, the Ki in assay [11] was 2500 nM.

The record behind these values is ChEMBL document CHEMBL4507268 (2021).
